Reference: doi:10.1101/2024.08.19.608619, “Discovery of potent SARS-CoV-2 nsp3 macrodomain inhibitors uncovers lack of translation to cellular antiviral response” (bioRxiv, 2024)
Values after ≈ are worked out from the molar mass of the structure shown. Values joined by “and” are separate entries in the source; they are usually repeats but may differ in a detail not shown here. Equal values may be shown once. Read-outs that look alike come from different tables or passages of the source.

Experiments:
LogD = conditions: pH 7.4, In vitro LogD
[1] = Permeability Papp (AB) MDR1/MDCKII; conditions: for perc_recovery_a_to_b_mean / perc_recovery_a_to_b_inhibitor_mean: recovery A to B; for papp_a_to_b_mean: A to B; for papp_b_to_a_mean: B to A; for perc_recovery_b_to_a_mean / perc_recovery_b_to_a_inhibitor_mean: recovery B to A; for perc_recovery_a_to_b_inhibitor_mean / perc_recovery_b_to_a_inhibitor_mean: MDR1-MDCKII
Lyn(h) = Lyn(h) (Homo sapiens, UniProt P07948); assay: biochemical; set-up: In vitro kinase panel profiling, per cent remaining kinase activity at 10 uM; conditions: atp_concentration=70, read-out: % of control remaining
Lyn(h), sequence (P07948 whole entry): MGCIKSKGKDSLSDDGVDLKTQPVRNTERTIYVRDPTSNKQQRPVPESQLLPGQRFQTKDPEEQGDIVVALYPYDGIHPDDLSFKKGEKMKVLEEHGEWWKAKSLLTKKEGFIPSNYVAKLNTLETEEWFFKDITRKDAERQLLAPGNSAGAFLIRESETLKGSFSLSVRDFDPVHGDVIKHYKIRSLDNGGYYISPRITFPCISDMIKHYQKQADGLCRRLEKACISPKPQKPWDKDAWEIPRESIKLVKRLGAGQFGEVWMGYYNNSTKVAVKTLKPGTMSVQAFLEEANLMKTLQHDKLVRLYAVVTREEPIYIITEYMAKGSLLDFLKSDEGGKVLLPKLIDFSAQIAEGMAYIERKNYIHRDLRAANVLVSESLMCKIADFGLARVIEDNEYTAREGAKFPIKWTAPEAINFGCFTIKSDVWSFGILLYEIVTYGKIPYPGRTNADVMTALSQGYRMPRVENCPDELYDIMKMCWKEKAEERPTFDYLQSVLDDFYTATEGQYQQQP
From the text: (§1) We derisk potential for off-target activity by profiling the compound in a CEREP panel, a standard secondary pharmacology assessment, as well as a kinase panel to derisk a potential hinge-binding motif in our leads, and a PARP panel to derisk activity against human […]. Reassuringly, the compounds are selective, with the only off-targets being moderate human CHRM2 and KOR receptors activity associated with ASAP-0011198.

ROCK-I(h) = target: T1, ROCK-I(h) (Homo sapiens, UniProt Q13464); assay: biochemical; set-up: In vitro kinase panel profiling, per cent remaining kinase activity at 10 uM; conditions: atp_concentration=70, read-out: % of control remaining
T1 construct: gene ROCK1
T1 sequence (Q13464 whole entry): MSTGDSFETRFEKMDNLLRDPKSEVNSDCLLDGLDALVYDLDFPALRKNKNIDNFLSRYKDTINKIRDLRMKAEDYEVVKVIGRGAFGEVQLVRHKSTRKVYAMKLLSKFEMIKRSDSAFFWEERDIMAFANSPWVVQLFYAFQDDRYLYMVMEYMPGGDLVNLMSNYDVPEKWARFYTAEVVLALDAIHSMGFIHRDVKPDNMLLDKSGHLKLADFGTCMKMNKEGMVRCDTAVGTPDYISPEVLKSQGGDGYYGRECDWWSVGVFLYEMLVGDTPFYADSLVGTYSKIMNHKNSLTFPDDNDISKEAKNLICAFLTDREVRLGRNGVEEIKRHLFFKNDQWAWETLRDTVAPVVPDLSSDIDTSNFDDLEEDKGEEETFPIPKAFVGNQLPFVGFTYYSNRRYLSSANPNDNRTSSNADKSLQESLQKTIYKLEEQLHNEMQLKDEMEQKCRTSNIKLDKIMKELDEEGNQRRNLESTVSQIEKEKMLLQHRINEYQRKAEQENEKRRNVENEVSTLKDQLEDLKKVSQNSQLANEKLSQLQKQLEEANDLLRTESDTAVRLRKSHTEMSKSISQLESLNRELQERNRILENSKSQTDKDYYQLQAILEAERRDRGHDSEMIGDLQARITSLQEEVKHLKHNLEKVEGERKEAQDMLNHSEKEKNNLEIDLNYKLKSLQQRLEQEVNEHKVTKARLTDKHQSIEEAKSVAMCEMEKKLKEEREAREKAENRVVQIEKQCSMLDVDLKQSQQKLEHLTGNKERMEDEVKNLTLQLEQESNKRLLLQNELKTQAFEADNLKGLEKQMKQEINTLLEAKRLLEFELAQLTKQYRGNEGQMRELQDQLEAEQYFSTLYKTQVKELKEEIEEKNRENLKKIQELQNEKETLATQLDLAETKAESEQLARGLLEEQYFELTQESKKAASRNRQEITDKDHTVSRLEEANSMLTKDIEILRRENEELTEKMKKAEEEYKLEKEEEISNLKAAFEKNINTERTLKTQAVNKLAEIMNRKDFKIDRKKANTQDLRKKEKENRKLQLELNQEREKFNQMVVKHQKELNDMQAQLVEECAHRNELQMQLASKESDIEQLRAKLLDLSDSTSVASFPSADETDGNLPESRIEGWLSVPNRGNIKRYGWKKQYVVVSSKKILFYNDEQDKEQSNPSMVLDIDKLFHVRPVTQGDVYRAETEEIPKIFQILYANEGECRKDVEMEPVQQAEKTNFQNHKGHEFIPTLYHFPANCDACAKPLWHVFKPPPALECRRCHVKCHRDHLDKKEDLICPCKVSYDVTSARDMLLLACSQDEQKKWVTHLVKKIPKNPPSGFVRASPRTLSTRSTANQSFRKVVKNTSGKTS
From the text: as §1

LOK(h) = target: T2, LOK(h) (Homo sapiens, UniProt O94804); assay: biochemical; set-up: In vitro kinase panel profiling, per cent remaining kinase activity at 10 uM; conditions: atp_concentration=120, read-out: % of control remaining
T2 construct: gene STK10
T2 sequence (O94804 whole entry): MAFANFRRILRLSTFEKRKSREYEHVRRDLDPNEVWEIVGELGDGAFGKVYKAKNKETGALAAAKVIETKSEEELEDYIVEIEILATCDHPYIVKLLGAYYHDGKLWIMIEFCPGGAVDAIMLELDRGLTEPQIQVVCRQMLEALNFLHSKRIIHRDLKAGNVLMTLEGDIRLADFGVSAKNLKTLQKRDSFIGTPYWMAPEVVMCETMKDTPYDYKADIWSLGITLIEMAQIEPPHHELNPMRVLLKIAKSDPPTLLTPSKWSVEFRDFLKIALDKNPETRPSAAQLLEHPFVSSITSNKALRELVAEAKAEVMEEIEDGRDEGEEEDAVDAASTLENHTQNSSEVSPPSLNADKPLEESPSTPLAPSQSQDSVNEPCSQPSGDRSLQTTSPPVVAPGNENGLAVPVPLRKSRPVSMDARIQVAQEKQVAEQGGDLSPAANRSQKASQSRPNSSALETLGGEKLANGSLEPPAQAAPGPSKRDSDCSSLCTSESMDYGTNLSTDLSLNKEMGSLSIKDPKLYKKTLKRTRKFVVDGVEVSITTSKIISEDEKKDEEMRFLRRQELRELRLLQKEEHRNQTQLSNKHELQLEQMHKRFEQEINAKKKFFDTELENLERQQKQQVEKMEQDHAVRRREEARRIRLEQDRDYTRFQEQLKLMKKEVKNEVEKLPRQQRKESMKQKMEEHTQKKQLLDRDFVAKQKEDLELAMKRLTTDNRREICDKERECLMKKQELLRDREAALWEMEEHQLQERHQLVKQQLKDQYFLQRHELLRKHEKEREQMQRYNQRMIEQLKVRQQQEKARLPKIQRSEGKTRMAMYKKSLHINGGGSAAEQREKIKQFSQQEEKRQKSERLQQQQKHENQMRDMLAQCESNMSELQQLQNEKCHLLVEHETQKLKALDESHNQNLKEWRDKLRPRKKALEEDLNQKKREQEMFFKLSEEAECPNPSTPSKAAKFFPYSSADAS
From the text: as §1

PRAK(h) = target: T3, PRAK(h) (Homo sapiens, UniProt Q8IW41); assay: biochemical; set-up: In vitro kinase panel profiling, per cent remaining kinase activity at 10 uM; conditions: atp_concentration=15, read-out: % of control remaining
T3 construct: gene MAPKAPK5
T3 sequence (Q8IW41 1-473): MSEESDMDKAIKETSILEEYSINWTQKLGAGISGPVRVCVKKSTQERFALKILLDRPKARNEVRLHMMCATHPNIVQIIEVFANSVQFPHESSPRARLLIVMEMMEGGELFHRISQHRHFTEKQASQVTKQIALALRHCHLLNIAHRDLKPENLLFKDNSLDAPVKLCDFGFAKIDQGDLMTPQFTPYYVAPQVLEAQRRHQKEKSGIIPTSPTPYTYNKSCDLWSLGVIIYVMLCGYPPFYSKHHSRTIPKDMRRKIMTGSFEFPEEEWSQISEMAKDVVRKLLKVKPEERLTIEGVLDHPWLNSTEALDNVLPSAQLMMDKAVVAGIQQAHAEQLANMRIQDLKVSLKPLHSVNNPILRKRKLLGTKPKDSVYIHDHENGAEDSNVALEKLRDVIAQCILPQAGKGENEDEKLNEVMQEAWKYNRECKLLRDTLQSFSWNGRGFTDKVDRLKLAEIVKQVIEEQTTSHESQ
From the text: as §1

TAK1(h) = target: T4, TAK1(h) (Homo sapiens, UniProt O43318); assay: biochemical; set-up: In vitro kinase panel profiling, per cent remaining kinase activity at 10 uM; conditions: atp_concentration=45, read-out: % of control remaining
T4 construct: gene MAP3K7
T4 sequence (O43318 1-606): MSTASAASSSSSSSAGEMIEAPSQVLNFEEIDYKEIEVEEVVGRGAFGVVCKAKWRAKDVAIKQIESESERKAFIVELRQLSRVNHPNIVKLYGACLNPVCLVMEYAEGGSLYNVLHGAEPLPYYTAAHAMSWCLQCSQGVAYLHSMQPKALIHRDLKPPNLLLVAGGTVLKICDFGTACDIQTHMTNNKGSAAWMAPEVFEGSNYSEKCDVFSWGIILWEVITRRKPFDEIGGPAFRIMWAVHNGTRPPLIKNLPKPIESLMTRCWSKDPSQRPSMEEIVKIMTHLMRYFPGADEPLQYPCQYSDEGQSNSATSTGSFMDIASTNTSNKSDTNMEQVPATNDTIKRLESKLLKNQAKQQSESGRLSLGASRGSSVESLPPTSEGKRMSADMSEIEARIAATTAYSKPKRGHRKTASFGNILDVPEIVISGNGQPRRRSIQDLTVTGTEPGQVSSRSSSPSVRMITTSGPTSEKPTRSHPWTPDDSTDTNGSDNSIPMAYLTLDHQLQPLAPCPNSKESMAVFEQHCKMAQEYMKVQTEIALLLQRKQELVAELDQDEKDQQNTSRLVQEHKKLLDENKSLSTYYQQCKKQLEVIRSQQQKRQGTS
From the text: as §1

CHK1(h) = target: T5, CHK1(h) (Homo sapiens, UniProt O14757); assay: biochemical; set-up: In vitro kinase panel profiling, per cent remaining kinase activity at 10 uM; conditions: atp_concentration=90, read-out: % of control remaining
T5 construct: gene CHEK1
T5 sequence (O14757 1-476): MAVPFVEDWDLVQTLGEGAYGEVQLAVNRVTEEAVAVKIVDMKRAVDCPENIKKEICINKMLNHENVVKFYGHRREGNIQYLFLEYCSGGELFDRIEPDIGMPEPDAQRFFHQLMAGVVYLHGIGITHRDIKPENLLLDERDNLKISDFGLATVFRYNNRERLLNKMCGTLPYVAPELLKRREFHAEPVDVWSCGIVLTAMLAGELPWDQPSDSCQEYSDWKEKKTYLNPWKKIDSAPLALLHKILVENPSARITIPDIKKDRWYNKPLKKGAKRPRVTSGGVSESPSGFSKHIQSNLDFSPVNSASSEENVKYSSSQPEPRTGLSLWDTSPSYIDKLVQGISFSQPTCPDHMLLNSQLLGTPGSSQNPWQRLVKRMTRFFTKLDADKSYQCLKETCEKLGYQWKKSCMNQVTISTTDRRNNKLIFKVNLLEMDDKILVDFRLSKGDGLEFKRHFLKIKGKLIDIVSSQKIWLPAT
From the text: as §1

PKA(h) = target: T6, PKA(h) (Homo sapiens, UniProt P17612); assay: biochemical; set-up: In vitro kinase panel profiling, per cent remaining kinase activity at 10 uM; conditions: atp_concentration=10, read-out: % of control remaining
T6 construct: gene PRKACA
From the text: as §1

[2] = In vitro kinetic solubility; conditions: In vitro kinetic solubility, ph 7.4
[3] = In vitro MDR1-MDCKII permeability, mean
[4] = In vitro MDR1-MDCKII permeability, no inhibitor

CC(C)C(Nc1ncnc2[nH]ccc12)c1ccc2c(c1)S(=O)(=O)CCC2 (stereo not drawn) [ASAP-0008327]
logd (LogD; pH 7.4, logd): 2.5 | perc_recovery_a_to_b_mean [1, 3]: 87.0% | remaining activity at 10 µM (Lyn(h); batch_name=ASAP-0008327-001): 112% | remaining activity at 10 µM (ROCK-I(h); batch_name=ASAP-0008327-001): 110% | remaining activity at 10 µM (LOK(h); batch_name=ASAP-0008327-001): 104% | remaining activity at 10 µM (PRAK(h); batch_name=ASAP-0008327-001): 107% | remaining activity at 10 µM (TAK1(h); batch_name=ASAP-0008327-001): 83% | remaining activity at 10 µM (CHK1(h); batch_name=ASAP-0008327-001): 84% | remaining activity at 10 µM (PKA(h); batch_name=ASAP-0008327-001): 98% | solubility ([2]; pH 7.4, solubility_mean): 385 µM (≈ 143 µg/mL)

COc1ccc([C@@H](Cc2nnn[nH]2)NC(=O)c2ncnc3[nH]ccc23)cc1 [ASAP-0008340]
logd (LogD): -0.1 | papp_a_to_b_mean [1, 3]: 1.39 ×10⁻⁶ cm/s | perc_recovery_a_to_b_mean [1, 3]: 89.1% | remaining activity at 10 µM (Lyn(h); batch_name=ASAP-0008340-001): 111% | remaining activity at 10 µM (ROCK-I(h); batch_name=ASAP-0008340-001): 93% | remaining activity at 10 µM (LOK(h); batch_name=ASAP-0008340-001): 96% | remaining activity at 10 µM (PRAK(h); batch_name=ASAP-0008340-001): 95% | remaining activity at 10 µM (TAK1(h); batch_name=ASAP-0008340-001): 88% | remaining activity at 10 µM (CHK1(h); batch_name=ASAP-0008340-001): 95% | remaining activity at 10 µM (PKA(h); batch_name=ASAP-0008340-001): 105% | solubility_mean [2]: 395 µM (≈ 144 µg/mL)

CC(C)[C@@H](Nc1ncnc2[nH]c(-c3cnn(C)c3C#N)cc12)c1ccc2c(n1)OCCO2 [ASAP-0008418]
logd (LogD): 3.4 and 3.6 | papp_a_to_b_mean [1, 3]: 12.8 ×10⁻⁶ cm/s and 21.3 ×10⁻⁶ cm/s | perc_recovery_a_to_b_mean [1, 3]: 82.0% and 88.6% | remaining activity at 10 µM (Lyn(h); batch_name=ASAP-0008418-001): 61% | remaining activity at 10 µM (ROCK-I(h); batch_name=ASAP-0008418-001): 93% | remaining activity at 10 µM (LOK(h); batch_name=ASAP-0008418-001): 47% | remaining activity at 10 µM (PRAK(h); batch_name=ASAP-0008418-001): 95% | remaining activity at 10 µM (TAK1(h); batch_name=ASAP-0008418-001): 103% | remaining activity at 10 µM (CHK1(h); batch_name=ASAP-0008418-001): 108% | remaining activity at 10 µM (PKA(h); batch_name=ASAP-0008418-001): 92% | solubility_mean [2]: 89 µM and 60 µM

CC(C)[C@H](Nc1ncnc2[nH]ccc12)c1ccc2c(c1)S(=O)(=O)CCC2 [ASAP-0008674]
logd (LogD): 2.7 | papp_a_to_b_mean [1, 3]: 5.5 ×10⁻⁶ cm/s | papp_a_to_b_mean [1, 4]: 0.12 ×10⁻⁶ cm/s and 0.0631 ×10⁻⁶ cm/s | papp_b_to_a_mean [1, 4]: 5.9 ×10⁻⁶ cm/s and 5.29 ×10⁻⁶ cm/s | efflux_ratio [1, 4]: 49.5 and 83.8 | perc_recovery_a_to_b_mean [1, 3]: 85.4% | perc_recovery_a_to_b_mean [1, 4]: 80.0% and 78.8% | perc_recovery_b_to_a_mean [1, 4]: 76.5% and 89.6% | perc_recovery_a_to_b_inhibitor_mean ([1]; with inhibitor Cyclosporin A): 83.2% | perc_recovery_a_to_b_inhibitor_mean ([1]; with inhibitor Verapamil): 90.5% | perc_recovery_b_to_a_inhibitor_mean ([1]; with inhibitor Cyclosporin A): 87.0% | perc_recovery_b_to_a_inhibitor_mean ([1]; with inhibitor Verapamil): 86.9% | remaining activity at 10 µM (Lyn(h); batch_name=ASAP-0008674-002): 104% | remaining activity at 10 µM (ROCK-I(h); batch_name=ASAP-0008674-002): 115% | remaining activity at 10 µM (LOK(h); batch_name=ASAP-0008674-002): 102% | remaining activity at 10 µM (PRAK(h); batch_name=ASAP-0008674-002): 102% | remaining activity at 10 µM (TAK1(h); batch_name=ASAP-0008674-002): 90% | remaining activity at 10 µM (CHK1(h); batch_name=ASAP-0008674-002): 110% | remaining activity at 10 µM (PKA(h); batch_name=ASAP-0008674-002): 89% | solubility_mean [2]: 374 µM (≈ 139 µg/mL)

CC(C)[C@H](Nc1ncnc2[nH]c(-c3cnn(C)c3C#N)cc12)c1ccc2c(n1)OCCO2 [ASAP-0010715]
logd (LogD): 3.7 | papp_b_to_a_mean [1, 4]: 5.98 ×10⁻⁶ cm/s | perc_recovery_a_to_b_mean [1, 4]: 70.1% and 79.9% | perc_recovery_b_to_a_mean [1, 4]: 76.7% | perc_recovery_a_to_b_inhibitor_mean ([1]; with inhibitor Cyclosporin A): 75.0% | perc_recovery_b_to_a_inhibitor_mean ([1]; with inhibitor Cyclosporin A): 76.7% | remaining activity at 10 µM (Lyn(h); batch_name=ASAP-0010715-002): 79% | remaining activity at 10 µM (ROCK-I(h); batch_name=ASAP-0010715-002): 115% | remaining activity at 10 µM (LOK(h); batch_name=ASAP-0010715-002): 45% | remaining activity at 10 µM (PRAK(h); batch_name=ASAP-0010715-002): 84% | remaining activity at 10 µM (TAK1(h); batch_name=ASAP-0010715-002): 94% | remaining activity at 10 µM (CHK1(h); batch_name=ASAP-0010715-002): 119% | remaining activity at 10 µM (PKA(h); batch_name=ASAP-0010715-002): 82% | solubility_mean [2]: 53 µM (≈ 22.8 µg/mL)
